This is an account of results in patent US10730919B2, “Peptides” (APITOPE INTERNATIONAL NV, priority 2013, dated 2020).

In this experiment the test system is RNB12 specific T cells. Description: Identification of apitopes in the RNB12 region (fresh vs fixed APCs, proliferation and IFN gamma). Format: cell-based, human. The conditions noted are these: RNB12 specific TCL, fresh or fixed BM14 cells (FIG. 18). On the procedure: Peripheral blood monocytes (PBMC) from healthy donors or Graves' disease patients were isolated (Histopaque-1077, Sigma-Aldrich), and frozen in aliquots. At day 0, cells were thawed and 106 PBMCs/ml cultured with 20 ug/ml peptide in supplemented (10 mM HEPES, 50 U/ml Penicillin/Streptomycin and 4 mM L-Glutamine (Lonza)) RPMI 1640 (Lonza) with 5% AB serum (Sigma Aldrich) added in a 6 well plate (Greiner Bio-one) and incubated in 37 C and 5% CO2. After 7 days rhIL-2 (R&D Systems) is added to a final concentration of 20 U/ml. […]
At day 24 the cells were harvested, washed and 2×104 cultured in a 96 well round-bottom plate (Cellstar, Greiner Bio One) with […] irradiated autologous PBMCs and VAVY/BM14/MGAR human cell lines expressing human MHC cl II molecules (International Histocompatibility Working group, Seattle, US) in supplemented RPMI+5% AB serum in presence of different antigens (peptides, protein) in concentration from 5-50 ug/ml. […] After the plates been frozen the cells were harvested and read with β counter (Wallac 1450 Microbeta Trilux) to assess proliferation. […]
The supernatants from TCL cultures were assessed for IFN gamma content by use of the Human IFN-gamma Duoset kit, R&D Systems following the manufacturer's instruction. Optical density was measured at 450 nm (Tecan Benelux)

As to KKKTLKLYNNGFTSVQGYKKK [RNB12-KKK], the apitope status result was “confirmed to be apitopes”.
